What was measured:
[1] = biological target: Metabotropic glutamate receptor 5 (Mus musculus, UniProt Q3UVX5); assay: Positive allosteric modulation at mGluR5 in mouse BV2 cells assessed as inhibition of LPS-induced NO production incubated for 1 hr prior to LPS challenge measured after 24 hrs by Griess assay; assay type: cell-based, BV-2
[2] = Cytotoxicity against mouse BV2 cells assessed as cell viability by cytotox nonradioactive assay; assay type: cell-based; conditions: bv-2
mGluR5 = assay: Selectivity index, ratio of cytotoxicity for mouse BV2 cells to IC50 for mGluR5 in mouse BV2 cells; assay type: toxicity, cell-based, BV-2; conditions: read-out: Selectivity Index

Chain of Metabotropic glutamate receptor 5 (Q3UVX5 whole entry): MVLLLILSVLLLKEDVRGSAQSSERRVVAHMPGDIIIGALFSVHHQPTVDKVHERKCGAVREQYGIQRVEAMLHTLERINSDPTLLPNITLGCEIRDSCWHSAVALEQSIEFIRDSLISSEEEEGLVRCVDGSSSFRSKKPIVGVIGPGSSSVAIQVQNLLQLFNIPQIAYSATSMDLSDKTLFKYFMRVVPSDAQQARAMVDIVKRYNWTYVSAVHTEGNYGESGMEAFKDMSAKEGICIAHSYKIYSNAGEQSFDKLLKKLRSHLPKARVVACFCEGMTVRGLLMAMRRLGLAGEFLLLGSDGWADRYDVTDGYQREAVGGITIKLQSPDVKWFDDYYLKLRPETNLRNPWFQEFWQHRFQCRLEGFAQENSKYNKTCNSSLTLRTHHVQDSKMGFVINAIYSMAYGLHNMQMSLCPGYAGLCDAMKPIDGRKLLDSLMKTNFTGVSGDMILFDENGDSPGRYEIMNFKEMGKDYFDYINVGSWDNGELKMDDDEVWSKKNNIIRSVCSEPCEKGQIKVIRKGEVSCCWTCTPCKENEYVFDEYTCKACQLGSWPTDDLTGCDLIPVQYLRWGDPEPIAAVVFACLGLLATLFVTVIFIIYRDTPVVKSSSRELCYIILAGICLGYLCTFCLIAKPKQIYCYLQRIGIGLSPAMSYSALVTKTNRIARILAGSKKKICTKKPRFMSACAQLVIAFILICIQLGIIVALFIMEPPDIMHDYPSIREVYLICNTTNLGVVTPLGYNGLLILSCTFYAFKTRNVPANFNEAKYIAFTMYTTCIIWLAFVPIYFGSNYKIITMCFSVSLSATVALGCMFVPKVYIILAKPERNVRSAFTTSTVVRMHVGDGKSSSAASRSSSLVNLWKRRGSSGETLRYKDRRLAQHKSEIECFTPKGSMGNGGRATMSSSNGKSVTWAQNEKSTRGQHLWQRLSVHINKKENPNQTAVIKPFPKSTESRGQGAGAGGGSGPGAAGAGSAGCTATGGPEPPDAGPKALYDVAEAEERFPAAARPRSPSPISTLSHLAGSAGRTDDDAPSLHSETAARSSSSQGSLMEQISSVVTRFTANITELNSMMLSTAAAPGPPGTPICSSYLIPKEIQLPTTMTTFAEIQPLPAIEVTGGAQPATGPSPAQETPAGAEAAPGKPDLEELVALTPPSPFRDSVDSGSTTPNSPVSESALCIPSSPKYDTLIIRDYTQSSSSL

SMILES | IC50 [1] [µM] | Cytotoxic concentration [2] [µM] | selectivity ratio (mGluR5)
O=C(N[C@H]1C[C@@H]1c1cccc(F)c1)c1ccc([N+](=O)[O-])cc1 (racemic) | 200 | 200 | 1.02
COc1cc(Br)ccc1NC(=O)[C@H]1C[C@@H]1c1cccc(F)c1 (racemic) | 46 | 1000 | 21.8
O=C(Nc1nc2ccccc2[nH]1)[C@H]1C[C@@H]1c1cccc(Cl)c1 (racemic) | 67 | 400 | 5.96
Fc1cccc(/C=N/N=C/c2cccc(F)c2)c1 | – | 500 | –
O=C(Nc1nc2ccccc2[nH]1)[C@H]1C[C@@H]1c1cccc(F)c1 (racemic) | 21 | 300 | 14.6
O=C(N[C@H]1C[C@@H]1c1cccc(F)c1)c1cccc(F)c1 (racemic) | 30 | 1000 | 33
O=C(N[C@H]1C[C@@H]1c1cccc(F)c1)c1cccc(Cl)c1 (relative stereo) | 200 | 1000 | 5.03
O=C(Nc1ccccc1Cl)[C@H]1C[C@@H]1c1cccc(F)c1 (racemic) | 180 | 1000 | 5.68
O=C(Nc1ccc(F)cc1)[C@H]1C[C@@H]1c1cccc(Cl)c1 (relative stereo) | 58 | 1000 | 17.4
O=C(N[C@H]1C[C@@H]1c1cccc(F)c1)c1cccc([N+](=O)[O-])c1 (racemic) | 130 | 400 | 3.01
O=C(Nc1nc2ccccc2s1)[C@H]1C[C@@H]1c1cccc(F)c1 (racemic) | 46 | 300 | 6.49
O=C(Nc1ccc(F)cc1)[C@H]1C[C@@H]1c1cccc(F)c1 (racemic) | 160 | 1000 | 6.25
O=C(N[C@H]1C[C@@H]1c1cccc(F)c1)c1ccccn1 (racemic) | 170 | 800 | 4.6
O=C(Nc1ccccc1Cl)[C@H]1C[C@@H]1c1cccc(Cl)c1 (relative stereo) | 71 | 1000 | 14.1
COc1cc(Br)ccc1NC(=O)[C@H]1C[C@@H]1c1cccc(Cl)c1 (racemic) | 230 | 1000 | 4.37
O=C(Nc1ccccc1F)[C@H]1C[C@@H]1c1cccc(F)c1 (racemic) | 210 | 1000 | 4.76

Source: ChEMBL document CHEMBL3421575, “Cyclopropyl-containing positive allosteric modulators of metabotropic glutamate receptor subtype 5” (Bioorg Med Chem Lett, 2015)
